# Assay results taken from paper PMC12005787, “Synthetic Lethality of SHP2 and XIAP Suppresses Proliferation and Metastasis in KRAS‐mutant Nonsmall Cell Lung Cancer” (Advanced Science, 2025).
# Read-outs that look alike come from different tables or passages of the source.
# How the values were obtained:
# Lewis/Luc1 cells = assay: Cell viability assay (CCK-8); type: cell-based
# Experimental: (§1) supplies are listed in Supplementary Table S5. […]
# (§2) KRAS-mutant and wild-type cells are listed in Supplementary Table S7.
# (§3) For the adherent cell viability assay, cells in the logarithmic growth phase were seeded in 96-well culture plates at a density of 5×103 well-1 and incubated overnight. Diluted compounds or DMSO were added, or specific treatments were incubated at 37 °C and 5% CO2 for 24 h or 48 h. Cell viability was determined using CCK-8 or CellLightTM Cell Viability Assay Kit, according to the manufacturer's protocol. The luminescence signals of the treated samples were normalized to those of the DMSO group. […]
# NCI-H1299 cells = assay: Cell viability assay (CCK-8); type: cell-based; settings: Homo sapiens
# Experimental: as §1, §2, §3
# HCC44 cells = assay: Cell viability assay (CCK-8); type: cell-based; settings: Homo sapiens
# Experimental: as §1, §2, §3
# A549 cells = assay: Cell viability assay (CCK-8); type: cell-based; settings: Homo sapiens
# Experimental: as §1, §2, §3
# HeLa cells = assay: Cell viability assay (CCK-8); type: cell-based; settings: Homo sapiens
# Experimental: as §1, §2, §3
# SW1417 cells = assay: Cell viability assay (CCK-8); type: cell-based; settings: Homo sapiens
# Experimental: as §1, §2, §3
# ACHN cells = assay: Cell viability assay (CCK-8); type: cell-based; settings: Homo sapiens
# Experimental: as §1, §2, §3
# NCI-H1155 cells = assay: Cell viability assay (CCK-8); type: cell-based; settings: Homo sapiens
# Experimental: as §1, §2, §3
# MDA-MB-231 cells = assay: Cell viability assay (CCK-8); type: cell-based; settings: Homo sapiens
# Experimental: as §1, §2, §3
# NCI-H1975 cells = assay: Cell viability assay (CCK-8); type: cell-based; settings: Homo sapiens, NCI-H1975, 24 h, NCI-H1975, RAS-wild type, EGFR L858R/T790M
# Experimental: as §1, §2, §3
# HCT15 cells = assay: Cell viability assay (CCK-8); type: cell-based; settings: Homo sapiens, HCT-15
# Experimental: as §1, §2, §3
# NCI-H2122 cells = assay: Cell viability assay (CCK-8); type: cell-based; settings: Homo sapiens
# Experimental: as §1, §2, §3
# HCT116 cells = assay: Cell viability assay (CCK-8); type: cell-based; settings: Homo sapiens, HCT-116
# Experimental: as §2, §3
# NCI-H838 cells = assay: Cell viability assay (CCK-8); type: cell-based; settings: Homo sapiens
# Experimental: as §2, §3
# NCI-H1944 cells = assay: Cell viability assay (CCK-8); type: cell-based; settings: Homo sapiens
# Experimental: as §2, §3
# NCI-H1755 cells = assay: Cell viability assay (CCK-8); type: cell-based; settings: Homo sapiens
# Experimental: as §2, §3
# NCI-H1693 cells = assay: Cell viability assay (CCK-8); type: cell-based; settings: Homo sapiens
# Experimental: as §2, §3
# NCI-H1915 cells = assay: Cell viability assay (CCK-8); type: cell-based
# Experimental: as §2, §3
# SW1116 cells = assay: Cell viability assay (CCK-8); type: cell-based; settings: Homo sapiens, SW 1116
# Experimental: as §2, §3
# NCI-H358 cells = assay: Cell viability assay (CCK-8); type: cell-based; settings: Homo sapiens
# Experimental: as §2, §3
# SNU-C2A cells = assay: Cell viability assay (CCK-8); type: cell-based
# Experimental: as §2, §3
# His‐SHP2 (full‐length) = target: T1, His‐SHP2 (full‐length) (Homo sapiens, UniProt Q06124); assay: Full-length SHP2 activity activated by bis-phosphorylated Gab1 peptide; type: biochemical
# T1 construct: His; made in house; host or cells: E. coli
# T1 sequence (Q06124 whole entry): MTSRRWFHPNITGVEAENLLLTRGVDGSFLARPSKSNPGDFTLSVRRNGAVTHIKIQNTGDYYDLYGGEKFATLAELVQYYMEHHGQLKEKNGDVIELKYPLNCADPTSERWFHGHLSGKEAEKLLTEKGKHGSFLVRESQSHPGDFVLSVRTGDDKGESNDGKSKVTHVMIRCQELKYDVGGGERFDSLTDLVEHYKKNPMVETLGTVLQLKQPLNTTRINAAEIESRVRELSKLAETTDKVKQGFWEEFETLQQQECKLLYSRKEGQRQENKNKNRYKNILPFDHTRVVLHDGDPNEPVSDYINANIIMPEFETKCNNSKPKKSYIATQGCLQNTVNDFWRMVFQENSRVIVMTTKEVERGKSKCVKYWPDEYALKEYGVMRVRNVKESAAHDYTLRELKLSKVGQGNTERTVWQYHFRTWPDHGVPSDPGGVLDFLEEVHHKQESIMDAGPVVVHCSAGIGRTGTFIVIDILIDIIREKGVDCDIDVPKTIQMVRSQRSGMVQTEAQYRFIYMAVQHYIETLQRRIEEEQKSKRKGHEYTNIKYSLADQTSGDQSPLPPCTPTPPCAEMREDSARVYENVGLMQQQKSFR
# Experimental: For detection of SHP2 allosteric regulation by the compounds, the soluble fusion His‐SHP2 protein was cloned, expressed, and purified by constructing a pET28a‐PTPN11 recombinant plasmid in E. coli. Subsequently, 148 nM His‐SHP2 protein with 14.8 µM peptide (bis‐phosphorylated peptide from Gab1, with the sequence of: H2N‐VE(pY)LDLDLD(PEG8)RVD‐(pY)VVVDQQ‐amide) was mixed thoroughly in reaction buffer and incubated for 30 min at 37 °C in the dark. The fluorescence intensity was detected by DiFMUP after addition of different drugs and incubation at 37 °C for 30 min, with SHP099 and Na3VO4 as positive controls and unactivated protein as negative controls.
compound,measurement,setting,value
CCCCCCCCCCCC1=C(O)C(=O)C=C(O)C1=O [Embelin],IC50,"Lewis/Luc1 cells; Lewis/Luc1, 48 h, read-out: IC50 at 48 h",18.2 ± 0.9 µM
same,IC50,"Lewis/Luc1 cells; Lewis/Luc1, RAS-wild type, 24 h, read-out: IC50 at 24 h",20.6 ± 0.6 µM
same,IC50,"NCI-H1299 cells; NCI-H1299, 48 h, read-out: IC50 at 48 h",13.1 ± 0.6 µM
same,IC50,"NCI-H1299 cells; NCI-H1299, NRAS, 24 h, read-out: IC50 at 24 h",19.6 ± 1 µM
same,IC50,"HCC44 cells; HCC44, 48 h, read-out: IC50 at 48 h",6.52 ± 0.4 µM
same,IC50,"HCC44 cells; HCC44, KRAS G12C, 24 h, read-out: IC50 at 24 h",27.3 ± 0.44 µM
same,IC50,"A549 cells; A549, 48 h, read-out: IC50 at 48 h",6.5 ± 0.9 µM
same,IC50,"A549 cells; A549, KRAS G12S, 24 h, read-out: IC50 at 24 h",7.9 µM
same,IC50,"HeLa cells; 48 h, read-out: IC50 at 48 h",13.4 ± 0.6 µM
same,IC50,"HeLa cells; RAS-wild type, 24 h, read-out: IC50 at 24 h",16.5 ± 0.2 µM
same,IC50,"SW1417 cells; SW1417, 48 h, read-out: IC50 at 48 h",14.9 ± 0.34 µM
same,IC50,"SW1417 cells; SW1417, RAS-wild type, 24 h, read-out: IC50 at 24 h",65.39 ± 0.36 µM
same,IC50,"ACHN cells; 48 h, read-out: IC50 at 48 h",10.3 ± 0.7 µM
same,IC50,"ACHN cells; HRAS, 24 h, read-out: IC50 at 24 h",27.4 ± 0.3 µM
same,IC50,"NCI-H1155 cells; NCI-H1155, 48 h, read-out: IC50 at 48 h",7.07 ± 0.45 µM
same,IC50,"NCI-H1155 cells; NCI-H1155, KRAS Q61H, 24 h, read-out: IC50 at 24 h",16.1 ± 0.36 µM
same,IC50,"MDA-MB-231 cells; MDA-MB-231, 48 h, read-out: IC50 at 48 h",11.5 ± 0.7 µM
same,IC50,"MDA-MB-231 cells; MDA-MB-231, KRAS G13D, 24 h, read-out: IC50 at 24 h",13.6 ± 0.2 µM
same,IC50,NCI-H1975 cells,7.4 ± 0.83 µM
same,IC50,"HCT15 cells; HCT15, 48 h, read-out: IC50 at 48 h",9.95 ± 0.38 µM
same,IC50,"HCT15 cells; HCT15, KRAS G13D, 24 h, read-out: IC50 at 24 h",12.8 ± 0.43 µM
same,IC50,"NCI-H2122 cells; NCI-H2122, 48 h, read-out: IC50 at 48 h",4.03 ± 0.1 µM
same,IC50,"NCI-H2122 cells; NCI-H2122, KRAS G12C, 24 h, read-out: IC50 at 24 h",4.9 ± 0.1 µM
same,IC50,"HCT116 cells; HCT116, 48 h, read-out: IC50 at 48 h",9.6 ± 0.4 µM
same,IC50,"HCT116 cells; HCT116, KRAS G13D, 24 h, read-out: IC50 at 24 h",18.2 ± 0.9 µM
same,IC50,"NCI-H838 cells; NCI-H838, 48 h, read-out: IC50 at 48 h",10.5 ± 0.44 µM
same,IC50,"NCI-H838 cells; NCI-H838, RAS-wild type, 24 h, read-out: IC50 at 24 h",39.79 ± 0.27 µM
same,IC50,"NCI-H1944 cells; NCI-H1944, 48 h, read-out: IC50 at 48 h",21.6 ± 0.9 µM
same,IC50,"NCI-H1944 cells; NCI-H1944, KRAS G13D, 24 h, read-out: IC50 at 24 h",31 ± 0.2 µM
same,IC50,"NCI-H1755 cells; NCI-H1755, 48 h, read-out: IC50 at 48 h",14.2 ± 0.27 µM
same,IC50,"NCI-H1755 cells; NCI-H1755, RAS-wild type, 24 h, read-out: IC50 at 24 h",49.4 ± 0.32 µM
same,IC50,"NCI-H1693 cells; NCI-H1693, 48 h, read-out: IC50 at 48 h",16.2 ± 0.37 µM
same,IC50,"NCI-H1693 cells; NCI-H1693, RAS-wild type, 24 h, read-out: IC50 at 24 h",42.57 ± 0.34 µM
same,IC50,"NCI-H1915 cells; NCI-H1915, 48 h, read-out: IC50 at 48 h",11.4 ± 0.39 µM
same,IC50,"NCI-H1915 cells; NCI-H1915, HRAS, 24 h, read-out: IC50 at 24 h",60.6 ± 0.41 µM
same,IC50,"SW1116 cells; SW1116, 48 h, read-out: IC50 at 48 h",7 ± 0.35 µM
same,IC50,"SW1116 cells; SW1116, KRAS G12A, 24 h, read-out: IC50 at 24 h",19.5 ± 0.29 µM
same,IC50,"NCI-H358 cells; NCI-H358, 48 h, read-out: IC50 at 48 h",9.2 ± 0.3 µM
same,IC50,"NCI-H358 cells; NCI-H358, KRAS G12C, 24 h, read-out: IC50 at 24 h",12.2 ± 0.4 µM
same,IC50,"SNU-C2A cells; 48 h, read-out: IC50 at 48 h",8.73 ± 0.43 µM
same,IC50,"SNU-C2A cells; KRAS G12D, 24 h, read-out: IC50 at 24 h",22.4 ± 0.5 µM
same,effect on SHP2 full‐length activity allosterically activated by bis‐phosphorylated Gab1 peptide,His‐SHP2 (full‐length),no effect
